Laboratory results reported in patent publication US9988430B2, “Stable GLP-1 based GLP-1/glucagon receptor co-agonists” (Novo Nordisk A/S, priority 2014, dated 2018).
*1 amine or outer side, *2 acyl side, *3 side chain or, on linkers, in order; H or OH if unused. Where a SMILES comes first, the peptide text is derived from it. Bridges are numbered along the chain shown (N, C = ends). Roman numbers before positions name the chains, in order. Side-chain parts run from the residue outwards. [ ]: non-standard residue; d: D form. The star is where a group is joined. C18 diacid = O=C(O)CCCCCCCCCCCCCCCCC(=O)*; γGlu = O=C(O)[C@H](CCC(=O)[*:2])N[*:1]; Desaminohistidyl = O=C(CCc1c[nH]cn1)*; Ac4c = NC1(C(=O)O)CCC1; AEEA = NCCOCCOCC(=O)O; Aib = CC(C)(N)C(=O)O

target: T1, human GLP-1 receptor (Homo sapiens, UniProt P43220); assay: Assay (I)(a): GLP-1 receptor potency, CRE luciferase reporter gene assay in BHK cells; type: cell-based; conditions: BHK cells expressing human GLP-1 receptor, read-out: EC50 GLP-1R
T1 construct: expressed in transfected cells; host or cells: membranes of BHK cells, parent line BHKTS13, clone FCW467-12A
Summary of the method: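 BHK cells (clone FCW467-12A/KZ10-1), 5×10EE3/well, exposed 3 h at 37° C to compound at 1×10EE-13 to 1×10EE-6 M final in medium with 2% ovalbumin and 0.2% Pluronic F-68. Luciferase luminescence read; EC50 (pM) from four-parameter fit.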

T1 sequence (P43220 24-463): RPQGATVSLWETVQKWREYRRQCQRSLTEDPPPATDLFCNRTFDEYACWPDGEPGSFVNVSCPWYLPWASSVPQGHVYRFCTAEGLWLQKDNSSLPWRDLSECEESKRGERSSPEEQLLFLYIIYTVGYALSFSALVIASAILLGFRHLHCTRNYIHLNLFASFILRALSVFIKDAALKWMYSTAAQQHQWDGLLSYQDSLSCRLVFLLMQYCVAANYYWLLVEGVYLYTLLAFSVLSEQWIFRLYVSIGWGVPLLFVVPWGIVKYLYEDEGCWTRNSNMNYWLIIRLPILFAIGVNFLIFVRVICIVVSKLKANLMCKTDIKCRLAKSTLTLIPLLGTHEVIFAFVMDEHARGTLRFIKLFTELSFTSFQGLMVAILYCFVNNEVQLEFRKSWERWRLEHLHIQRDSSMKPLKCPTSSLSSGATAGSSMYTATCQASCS

SMILES | EC50
CC[C@H](C)[C@H](NC(=O)[C@H](Cc1ccccc1)NC(=O)[C@H](CCC(=O)O)NC(=O)[C@H](CCCNC(=N)N)NC(=O)[C@H](C)NC(=O)[C@H](C)NC(=O)[C@H](CCC(N)=O)NC(=O)[C@H](CCC(=O)O)NC(=O)[C@H](CCC(=O)O)NC(=O)[C@H](CC(C)C)NC(=O)[C@H](Cc1ccc(O)cc1)NC(=O)[C@H](CCCCN)NC(=O)[C@H](CO)NC(=O)[C@@H](NC(=O)[C@H](CC(=O)O)NC(=O)[C@H](CO)NC(=O)[C@@H](NC(=O)[C@H](Cc1ccccc1)NC(=O)[C@@H](NC(=O)CNC(=O)[C@H](Cc1c[nH]cn1)NC(=O)C1(NC(=O)CCc2c[nH]cn2)CCC1)[C@@H](C)O)[C@@H](C)O)C(C)C)C(=O)N[C@@H](C)C(=O)N[C@@H](Cc1c[nH]c2ccccc12)C(=O)N[C@@H](CC(C)C)C(=O)N[C@@H](CC(C)C)C(=O)N[C@@H](CCCCNC(=O)CNC(=O)[C@H](CO)NC(=O)[C@H](CCC(=O)O)NC(=O)CNC(=O)[C@H](CO)NC(=O)CC[C@H](NC(=O)CC[C@H](NC(=O)CCCCCCCCCCCCCCCCC(=O)O)C(=O)O)C(=O)O)C(=O)N[C@H](C(N)=O)[C@@H](C)O [Example 9, N^ε34-[2-[[(2S)-2-[[(2S)-4-carboxy-2-[[2-[[(2S)-2-[[(4S)-4-carboxy-4-[[(4S)-4-carboxy-4-(17-carboxyheptadecanoylamino)butanoyl]amino]butanoyl]amino]-3-hydroxypropanoyl]amino]acetyl]amino]butanoyl]amino]-3-hydroxypropanoyl]amino]acetyl]-[Imp7,Acb8,His9,Lys18,Glu22,Arg26,Leu33,Thr35]-GLP-1-(7-35)-peptide amide] (I: Desaminohistidyl-[Ac4c]HGTFTSDVSKYLEEQAAREFIAWLLKT-NH2 / II: {C18 diacid-γGlu-γGlu}-SGESG; amide I:27-II:C) | 5 pM
CC[C@H](C)[C@H](NC(=O)[C@H](Cc1ccccc1)NC(=O)[C@H](CCC(=O)O)NC(=O)[C@H](CCCNC(=N)N)NC(=O)[C@H](C)NC(=O)[C@H](C)NC(=O)[C@H](CCC(N)=O)NC(=O)[C@H](CCC(=O)O)NC(=O)[C@H](CCC(=O)O)NC(=O)[C@H](CC(C)C)NC(=O)[C@H](Cc1ccc(O)cc1)NC(=O)[C@H](CCCCN)NC(=O)[C@H](CO)NC(=O)[C@@H](NC(=O)[C@H](CC(=O)O)NC(=O)[C@H](CO)NC(=O)[C@@H](NC(=O)[C@H](Cc1ccccc1)NC(=O)[C@@H](NC(=O)CNC(=O)[C@H](Cc1c[nH]cn1)NC(=O)C(C)(C)NC(=O)CCc1c[nH]cn1)[C@@H](C)O)[C@@H](C)O)C(C)C)C(=O)N[C@@H](C)C(=O)N[C@@H](Cc1c[nH]c2ccccc12)C(=O)N[C@@H](CC(C)C)C(=O)N[C@@H](CC(C)C)C(=O)N[C@@H](CCCCNC(=O)CC[C@H](NC(=O)CC[C@H](NC(=O)CC[C@H](NC(=O)CC[C@H](NC(=O)CCCCCCCCCCCCCCCCC(=O)O)C(=O)O)C(=O)O)C(=O)O)C(=O)O)C(=O)N[C@H](C(N)=O)[C@@H](C)O [Example 6, N^ε34-[(4S)-4-carboxy-4-[[(4S)-4-carboxy-4-[[(4S)-4-carboxy-4-[[(4S)-4-carboxy-4-(17-carboxyheptadecanoylamino)butanoyl]amino]butanoyl]amino]butanoyl]amino]butanoyl]-[Imp7,Aib8,His9,Lys18,Glu22,Arg26,Leu33,Thr35]-GLP-1-(7-35)-peptide amide] (Desaminohistidyl-[Aib]HGTFTSDVSKYLEEQAAREFIAWLLK([γGlu-γGlu-γGlu-γGlu-C18 diacid])T-NH2) | 7 pM
CC[C@H](C)[C@H](NC(=O)[C@H](Cc1ccccc1)NC(=O)[C@H](CCC(=O)O)NC(=O)[C@H](CCCNC(=N)N)NC(=O)[C@H](C)NC(=O)[C@H](C)NC(=O)[C@H](CCC(N)=O)NC(=O)[C@H](CCC(=O)O)NC(=O)[C@H](CCC(=O)O)NC(=O)[C@H](CC(C)C)NC(=O)[C@H](Cc1ccc(O)cc1)NC(=O)[C@H](CCCNC(=N)N)NC(=O)[C@H](CO)NC(=O)[C@@H](NC(=O)[C@H](CC(=O)O)NC(=O)[C@H](CO)NC(=O)[C@@H](NC(=O)[C@H](Cc1ccccc1)NC(=O)[C@@H](NC(=O)CNC(=O)[C@H](Cc1c[nH]cn1)NC(=O)C(C)(C)NC(=O)CCc1c[nH]cn1)[C@@H](C)O)[C@@H](C)O)C(C)C)C(=O)N[C@@H](C)C(=O)N[C@@H](Cc1c[nH]c2ccccc12)C(=O)N[C@@H](CC(C)C)C(=O)N[C@@H](CC(C)C)C(=O)N[C@@H](CCCCNC(=O)CNC(=O)[C@H](CO)NC(=O)[C@H](CCC(=O)O)NC(=O)CNC(=O)[C@H](CO)NC(=O)CC[C@H](NC(=O)CC[C@H](NC(=O)CCCCCCCCCCCCCCCCC(=O)O)C(=O)O)C(=O)O)C(=O)N[C@H](C(N)=O)[C@@H](C)O [Example 7, N^ε34-[2-[[(2S)-2-[[(2S)-4-carboxy-2-[[2-[[(2S)-2-[[(4S)-4-carboxy-4-[[(4S)-4-carboxy-4-(17-carboxyheptadecanoylamino)butanoyl]amino]butanoyl]amino]-3-hydroxypropanoyl]amino]acetyl]amino]butanoyl]amino]-3-hydroxypropanoyl]amino]acetyl]-[Imp7,Aib8,His9,Arg18,Glu22,Arg26,Leu33,Thr35]-GLP-1-(7-35)-peptide amide] (I: Desaminohistidyl-[Aib]HGTFTSDVSRYLEEQAAREFIAWLLKT-NH2 / II: {C18 diacid-γGlu-γGlu}-SGESG; amide I:27-II:C) | 6 pM
CC[C@H](C)[C@H](NC(=O)[C@H](Cc1ccccc1)NC(=O)[C@H](CCC(=O)O)NC(=O)[C@H](CCCNC(=N)N)NC(=O)[C@H](C)NC(=O)[C@H](C)NC(=O)[C@H](CCC(N)=O)NC(=O)[C@H](CCC(=O)O)NC(=O)[C@H](CCC(=O)O)NC(=O)[C@H](CC(C)C)NC(=O)[C@H](Cc1ccc(O)cc1)NC(=O)[C@H](CCCCN)NC(=O)[C@H](CO)NC(=O)[C@@H](NC(=O)[C@H](CC(=O)O)NC(=O)[C@H](CO)NC(=O)[C@@H](NC(=O)[C@H](Cc1ccccc1)NC(=O)[C@@H](NC(=O)CNC(=O)[C@H](Cc1c[nH]cn1)NC(=O)C(C)(C)NC(=O)CCc1c[nH]cn1)[C@@H](C)O)[C@@H](C)O)C(C)C)C(=O)N[C@@H](C)C(=O)N[C@@H](Cc1c[nH]c2ccccc12)C(=O)N[C@@H](CC(C)C)C(=O)N[C@@H](CC(C)C)C(=O)N[C@@H](CCCCNC(=O)CNC(=O)[C@H](CO)NC(=O)[C@H](CCC(=O)O)NC(=O)CNC(=O)[C@H](CO)NC(=O)CC[C@H](NC(=O)CC[C@H](NC(=O)CCCCCCCCCCCCCCCCC(=O)O)C(=O)O)C(=O)O)C(=O)N[C@H](C(N)=O)[C@@H](C)O [Example 3, N^ε34-[2-[[(2S)-2-[[(2S)-4-carboxy-2-[[2-[[(2S)-2-[[(4S)-4-carboxy-4-[[(4S)-4-carboxy-4-(17-carboxyheptadecanoylamino)butanoyl]amino]butanoyl]amino]-3-hydroxypropanoyl]amino]acetyl]amino]butanoyl]amino]-3-hydroxypropanoyl]amino]acetyl]-[Imp7,Aib8,His9,Lys18,Glu22,Arg26,Leu33,Thr35]-GLP-1-(7-35)-peptide amide] (I: Desaminohistidyl-[Aib]HGTFTSDVSKYLEEQAAREFIAWLLKT-NH2 / II: {C18 diacid-γGlu-γGlu}-SGESG; amide I:27-II:C) | 5 pM

Now from value to molecule:

EC50 | SMILES
6 pM | CC[C@H](C)[C@H](NC(=O)[C@H](Cc1ccccc1)NC(=O)[C@H](CCC(=O)O)NC(=O)[C@H](CCCNC(=N)N)NC(=O)[C@H](C)NC(=O)[C@H](C)NC(=O)[C@H](CCC(N)=O)NC(=O)[C@H](CCC(=O)O)NC(=O)[C@H](CCC(=O)O)NC(=O)[C@H](CC(C)C)NC(=O)[C@H](Cc1ccc(O)cc1)NC(=O)[C@H](CCCCN)NC(=O)[C@H](CO)NC(=O)[C@@H](NC(=O)[C@H](CC(=O)O)NC(=O)[C@H](CO)NC(=O)[C@@H](NC(=O)[C@H](Cc1ccccc1)NC(=O)[C@@H](NC(=O)CNC(=O)[C@H](Cc1c[nH]cn1)NC(=O)C(C)(C)NC(=O)CCc1c[nH]cn1)[C@@H](C)O)[C@@H](C)O)C(C)C)C(=O)N[C@@H](C)C(=O)N[C@@H](Cc1c[nH]c2ccccc12)C(=O)N[C@@H](CC(C)C)C(=O)N[C@@H](CC(C)C)C(=O)N[C@@H](CCCCNC(=O)COCCOCCNC(=O)COCCOCCNC(=O)CC[C@H](NC(=O)CCCCCCCCCCCCCCCCC(=O)O)C(=O)O)C(=O)N[C@H](C(N)=O)[C@@H](C)O [Example 12, N^ε34-[2-[2-[2-[[2-[2-[2-[[(4S)-4-carboxy-4-(17-carboxyheptadecanoylamino)butanoyl]amino]ethoxy]ethoxy]acetyl]amino]ethoxy]ethoxy]acetyl]-[Imp7,Aib8,His9,Lys18,Glu22,Arg26,Leu33,Thr35]-GLP-1-(7-35)-peptide amide] (Desaminohistidyl-[Aib]HGTFTSDVSKYLEEQAAREFIAWLLK([AEEA-AEEA-γGlu-C18 diacid])T-NH2)
12 pM | CC[C@H](C)[C@H](NC(=O)[C@H](Cc1ccccc1)NC(=O)[C@H](CCC(=O)O)NC(=O)[C@H](CCCNC(=N)N)NC(=O)[C@H](C)NC(=O)[C@H](C)NC(=O)[C@H](CCCNC(=N)N)NC(=O)CNC(=O)[C@H](CCC(=O)O)NC(=O)[C@H](CC(C)C)NC(=O)[C@H](Cc1ccc(O)cc1)NC(=O)[C@H](CCCCN)NC(=O)[C@H](CO)NC(=O)[C@@H](NC(=O)[C@H](CC(=O)O)NC(=O)[C@H](CO)NC(=O)[C@@H](NC(=O)[C@H](Cc1ccccc1)NC(=O)[C@@H](NC(=O)CNC(=O)[C@H](Cc1c[nH]cn1)NC(=O)C1(NC(=O)CCc2c[nH]cn2)CCC1)[C@@H](C)O)[C@@H](C)O)C(C)C)C(=O)N[C@@H](C)C(=O)N[C@@H](Cc1c[nH]c2ccccc12)C(=O)N[C@@H](CC(C)C)C(=O)N[C@@H](CC(C)C)C(=O)N[C@@H](CCCCNC(=O)CNC(=O)[C@H](CO)NC(=O)[C@H](CCC(=O)O)NC(=O)CNC(=O)[C@H](CO)NC(=O)CC[C@H](NC(=O)CC[C@H](NC(=O)CCCCCCCCCCCCCCCCC(=O)O)C(=O)O)C(=O)O)C(=O)N[C@H](C(N)=O)[C@@H](C)O [Example 20, N^ε34-[2-[[(2S)-2-[[(2S)-4-carboxy-2-[[2-[[(2S)-2-[[(4S)-4-carboxy-4-[[(4S)-4-carboxy-4-(17-carboxyheptadecanoylamino)butanoyl]amino]butanoyl]amino]-3-hydroxypropanoyl]amino]acetyl]amino]butanoyl]amino]-3-hydroxypropanoyl]amino]acetyl]-[Imp7,Acb8,His9,Lys18,Arg23,Arg26,Leu33,Thr35]-GLP-1-(7-35)-peptide amide] (I: Desaminohistidyl-[Ac4c]HGTFTSDVSKYLEGRAAREFIAWLLKT-NH2 / II: {C18 diacid-γGlu-γGlu}-SGESG; amide I:27-II:C)
